Active and inactive are the calls of the source. The rule behind the calls is not given here.
How the values were obtained:
[1] = tested on: Jurkat; assay: Cytotoxic activity against Jurkat cells upto 500 ug/mL by MTT assay; type: functional, cell-based; conditions: Homo sapiens
[2] = tested on: Jurkat; assay: Inhibition of anti-CD3 plus anti-CD28-induced IL2 secretion in Jurkat cells; type: functional, Homo sapiens
[3] = tested on: Jurkat; assay: Inhibition of PMA plus ionomycin-induced IL2 secretion in Jurkat cells; type: functional, cell-based; conditions: Homo sapiens

Q: For `O=C(/C=C/c1ccc(O)c(O)c1)O[C@@H]1C[C@@](OC(=O)/C=C/c2ccc(O)c(O)c2)(C(=O)O)C[C@@H](O)[C@@H]1O` [CYNARIN], which Activity [1] is on record?
A: Its Activity is “Non-toxic”.

Q: What about the Inhibition [2] of the same compound?
A: Its Inhibition is -53%.

Q: And the Activity [3]?
A: The Activity was “inactive”.

— ChEMBL document CHEMBL1138157, “Immuno-suppressive effect of blocking the CD28 signaling pathway in T-cells by an active component of Echinacea found by a novel pharmaceutical screening method” (2006)
